Biological target: T1, efflux pump P-glycoprotein (Cavia porcellus, UniProt H0VLE6)
T1 construct: The small intestine of guinea pigs was immediately removed after sacrificing animals, cut lengthwise and rinsed; from tissue; host or cells: guinea pig small intestinal mucosa mounted in Ussing chambers
Assay: Permeation studies with rhodamine 123 across guinea pig small intestinal mucosa in Ussing chambers (efflux pump inhibition)
Type: in vitro ADME
Settings: 0.5% (m/v)
Procedure: The small intestine of guinea pigs was immediately removed after sacrificing animals, cut lengthwise and rinsed with sterile 0.9% sodium chloride solution. Thereafter it was mounted in Ussing chambers. The incubation medium was a 50 mM Bis-Tris (bis[2-hydroxyethyl]imino-tris[hydroxymethyl]methane) pH 6.0 buffer containing 250 mM NaCl, 2.6 mM MgSO4, 10 mM KCl, 40 mM glucose and 50 mM NaHCO3. […] J Pharm Sei. […] At predetermined time points samples were withdrawn from the acceptor chamber—facing to the basolateral site of the mucosa and replaced by fresh incubation medium. […] In addition all permeation studies described above were also performed with the mucosa being mounted in the opposite direction, so that the donor compartment is facing the basolateral site of the mucosa. In parallel, the same experiments were performed with the only difference that the donor- and acceptor compartment contained additionally glutathione in a concentration of 0.5%.
In order to compare the inhibitory effect of glutathione and/or polythiol-compounds with well-known inhibitors on efflux pumps of the gastrointestinal mucosa, they were tested in parallel.

T1 sequence (H0VLE6 1-1243): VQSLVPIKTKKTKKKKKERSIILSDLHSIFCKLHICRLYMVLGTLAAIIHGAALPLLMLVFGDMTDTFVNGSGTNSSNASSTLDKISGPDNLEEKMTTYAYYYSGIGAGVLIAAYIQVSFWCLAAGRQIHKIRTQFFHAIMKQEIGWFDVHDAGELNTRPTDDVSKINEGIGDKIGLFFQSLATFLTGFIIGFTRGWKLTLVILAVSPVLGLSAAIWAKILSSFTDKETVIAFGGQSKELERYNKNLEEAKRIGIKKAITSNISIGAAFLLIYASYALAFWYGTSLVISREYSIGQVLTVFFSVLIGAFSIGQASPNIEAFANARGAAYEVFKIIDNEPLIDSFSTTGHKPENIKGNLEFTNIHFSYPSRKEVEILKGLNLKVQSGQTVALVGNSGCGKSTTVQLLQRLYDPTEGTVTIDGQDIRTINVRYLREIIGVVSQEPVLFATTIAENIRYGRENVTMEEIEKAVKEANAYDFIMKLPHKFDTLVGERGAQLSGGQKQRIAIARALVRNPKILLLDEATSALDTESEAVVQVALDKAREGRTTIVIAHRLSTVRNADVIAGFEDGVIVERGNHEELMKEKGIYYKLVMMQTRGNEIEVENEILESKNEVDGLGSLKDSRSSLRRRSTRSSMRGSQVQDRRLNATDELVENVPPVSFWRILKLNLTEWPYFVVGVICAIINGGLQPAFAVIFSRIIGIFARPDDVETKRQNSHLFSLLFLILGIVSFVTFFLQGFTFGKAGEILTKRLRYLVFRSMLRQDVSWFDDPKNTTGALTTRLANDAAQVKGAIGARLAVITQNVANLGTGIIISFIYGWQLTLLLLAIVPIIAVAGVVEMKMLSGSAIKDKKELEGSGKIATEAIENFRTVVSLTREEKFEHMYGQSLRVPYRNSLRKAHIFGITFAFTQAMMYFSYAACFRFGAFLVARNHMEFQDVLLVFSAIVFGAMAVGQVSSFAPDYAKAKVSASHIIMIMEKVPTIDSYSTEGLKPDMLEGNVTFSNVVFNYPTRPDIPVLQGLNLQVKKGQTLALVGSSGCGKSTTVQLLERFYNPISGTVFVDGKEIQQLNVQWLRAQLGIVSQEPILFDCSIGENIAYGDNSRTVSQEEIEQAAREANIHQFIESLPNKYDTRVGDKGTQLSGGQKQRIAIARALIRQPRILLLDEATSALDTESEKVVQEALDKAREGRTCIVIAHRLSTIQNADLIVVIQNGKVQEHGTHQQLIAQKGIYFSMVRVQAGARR

effect on rhodamine permeation at 4° C. compared with 37° C. (4° C.): dramatically lower effect
permeation of rhodamine in the absorptive direction in the presence of the compound (37° C., apical to basolateral): significantly improved
permeation of rhodamine in the secretory direction in the presence of the compound (37° C., basolateral to apical): significantly reduced
efflux pump inhibitory effect (37° C., p<0.05, rhodamine 123): statistically significant
SMILES: N[C@@H](CCC(=O)N[C@@H](CS)C(=O)NCC(=O)O)C(=O)O [Glutathione, glutathione]

— patent publication US20080200563A1, “Use of Compounds Containing Thiol Groups as Efflux Pump Inhibitors” (ThioMatrix Forschungs- und Beratungs- GmbH, priority 2004, published 2008)
